Values of other authors as cited in US8409637B2, “Compositions and methods for treating and preventing migrainous headaches and associated symptoms” (Puramed Bioscience Inc., priority 2007, dated 2013).

Experiments:
COX-2 = target: T1, COX-2 (Homo sapiens, UniProt P35354)
T1 sequence (P35354 18-604): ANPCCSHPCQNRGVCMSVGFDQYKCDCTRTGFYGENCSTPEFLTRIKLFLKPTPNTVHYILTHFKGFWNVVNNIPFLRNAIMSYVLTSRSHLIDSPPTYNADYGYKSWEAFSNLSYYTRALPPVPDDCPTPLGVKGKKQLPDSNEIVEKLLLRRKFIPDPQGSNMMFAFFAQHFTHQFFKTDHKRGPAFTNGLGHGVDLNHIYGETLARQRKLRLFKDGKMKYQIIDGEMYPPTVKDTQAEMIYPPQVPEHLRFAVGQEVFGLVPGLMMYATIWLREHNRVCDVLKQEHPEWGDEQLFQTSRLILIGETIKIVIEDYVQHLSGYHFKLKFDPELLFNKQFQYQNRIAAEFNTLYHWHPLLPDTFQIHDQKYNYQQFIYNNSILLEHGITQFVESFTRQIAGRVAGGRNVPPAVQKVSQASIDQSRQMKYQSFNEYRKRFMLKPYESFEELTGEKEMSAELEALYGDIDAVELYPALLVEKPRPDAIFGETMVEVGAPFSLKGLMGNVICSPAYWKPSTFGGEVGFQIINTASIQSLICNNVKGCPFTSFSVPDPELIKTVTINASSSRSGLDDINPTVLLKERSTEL

C/C=C(/C=O)[C@@H](CC=O)CC(=O)OCCc1ccc(O)cc1 [oleocanthal]
Inhibition of COX-1 enzyme activity (COX-1): inhibits
Inhibition of COX-2 enzyme activity (COX-2): inhibits
